Data as given in patent US8741944B2, “Anti-infective agents against intracellular pathogens” (priority 2007, dated 2014).

Key:
[1] = test system: SK-MEL-28 (Melanoma); experiment: NCI DTP tumor cell line screen (SRB), SK-MEL-28; details: Log10 Concentration −8.0
Method: (§1) For a typical screening experiment, cells are inoculated into 96 well microtiter plates in 100 μL at plating densities ranging from 5,000 to 40,000 cells/well depending on the doubling time of individual cell lines. After cell inoculation, the microtiter plates are incubated at 37° C., 5% CO2, 95% air and 100% relative humidity for 24 h prior to addition of experimental drugs.
(§2) After 24 h, two plates of each cell line are fixed in situ with TCA, to represent a measurement of the cell population for each cell line at the time of drug addition (Tz). Experimental drugs are solubilized in dimethyl sulfoxide at 400-fold the desired final maximum test concentration and stored frozen prior to use. At the time of drug addition, an aliquot of frozen concentrate is thawed and diluted to twice the desired final maximum test concentration with complete medium containing 50 μg/ml gentamicin. Additional four, 10-fold or ½ log serial dilutions are made to provide a total of five drug concentrations plus control. Aliquots of 100 μl of these different drug dilutions are added to the appropriate microtiter wells already containing 100 μl of medium, resulting in the required final drug concentrations.
(§3) Following drug addition, the plates are incubated for an additional 48 h at 37° C., 5% CO2, 95% air, and 100% relative humidity. For adherent cells, the assay is terminated by the addition of cold TCA. Cells are fixed in situ by the gentle addition of 50 μl of cold 50% (w/v) TCA (final concentration, 10% TCA) and incubated for 60 minutes at 4° C. The supernatant is discarded, and the plates are washed five times with tap water and air dried. Sulforhodamine B (SRB) solution (1001) at 0.4% (w/v) in 1% acetic acid is added to each well, and plates are incubated for 10 minutes at room temperature. After staining, unbound dye is removed by washing five times with 1% acetic acid and the plates are air dried. Bound stain is subsequently solubilized with 10 mM trizma base, and the absorbance is read on an automated plate reader at a wavelength of 515 nm. For suspension cells, the methodology is the same except that the assay is terminated by fixing settled cells at the bottom of the wells by gently adding 50 μl of 80% TCA (final concentration, 16% TCA). Using the seven absorbance measurements [time zero, (Tz), control growth, (C), and test growth in the presence of drug at the five concentration levels (Ti)], the percentage growth is calculated at each of the drug concentrations levels. Percentage growth inhibition is calculated as: [(Ti−Tz)/(C−Tz)]×100 for concentrations for which Ti>/=Tz [(Ti−Tz)/Tz]×100 for concentrations for which Ti<Tz
(§4) Three dose response parameters are calculated for each experimental agent. […] The drug concentration resulting in total growth inhibition (TGI) is calculated from Ti=Tz. […] Values are calculated for each of these three parameters if the level of activity is reached; however, if the effect is not reached or is exceeded, the value for that parameter is expressed as greater or less than the maximum or minimum concentration tested.

[2] = test system: OVCAR-8 (Ovarian Cancer); experiment: NCI DTP tumor cell line screen (SRB), OVCAR-8; details: OVCAR-8
Method: as §1, §2, §3, §4

[3] = test system: HCT-15 (Colon Cancer); experiment: NCI DTP tumor cell line screen (SRB), HCT-15; details: HCT-15
Method: as §1, §2, §3, §4

[4] = test system: IGROV1 (Ovarian Cancer); experiment: NCI DTP tumor cell line screen (SRB), IGROV1
Method: as §1, §2, §3, §4

[5] = test system: T-47D (Breast Cancer); experiment: NCI DTP tumor cell line screen (SRB), T-47D
Method: as §1, §2, §3, §4

[6] = test system: HCT-116 (Colon Cancer); experiment: NCI DTP tumor cell line screen (SRB), HCT-116
Method: as §1, §2, §3, §4

[7] = test system: HS 578T (Breast Cancer); experiment: NCI DTP tumor cell line screen (SRB), HS 578T
Method: as §1, §2, §3, §4

[8] = test system: M14 (Melanoma); experiment: NCI DTP tumor cell line screen (SRB), M14
Method: as §1, §2, §3, §4

[9] = test system: HOP-62 (Non-Small Cell Lung Cancer); experiment: NCI DTP tumor cell line screen (SRB), HOP-62
Method: as §1, §2, §3, §4

Structure (SMILES): NCC(=O)Nc1ccc(-n2nc(C(F)(F)F)cc2-c2ccc3c(ccc4ccccc43)c2)cc1 [Compound 70, 2-Amino-N-{4-[5-(2-phenanthrenyl)-3-(trifluoromethyl)-1H-pyrazol-1-yl]-phenyl}-acetamide]
- Percent Growth [1]: 94%
- TGI [2]: 4.05E−06
- Mean Optical Densities ([2]; Log10 Concentration −4.0): 0.306
- Mean Optical Densities ([2]; Log10 Concentration −5.0): 0.269
- Percent Growth ([2]; Log10 Concentration −5.0): −33%
- Mean Optical Densities ([2]; Log10 Concentration −6.0): 0.755
- Percent Growth ([2]; Log10 Concentration −6.0): 51%
- Mean Optical Densities ([2]; Log10 Concentration −7.0): 1.114
- Percent Growth ([2]; Log10 Concentration −7.0): 102%
- Mean Optical Densities ([2]; Log10 Concentration −8.0): 1.078
- Percent Growth ([2]; Log10 Concentration −8.0): 97%
- TGI [3]: 3.19E−06
- Mean Optical Densities ([3]; Log10 Concentration −5.0): 0.149
- Percent Growth ([3]; Log10 Concentration −5.0): −47%
- Mean Optical Densities ([3]; Log10 Concentration −6.0): 0.561
- Percent Growth ([3]; Log10 Concentration −6.0): 47%
- Mean Optical Densities ([3]; Log10 Concentration −7.0): 0.599
- Percent Growth ([3]; Log10 Concentration −7.0): 54%
- Mean Optical Densities ([3]; Log10 Concentration −8.0): 0.760
- Percent Growth ([3]; Log10 Concentration −8.0): 81%
- TGI [4]: 3.97E−06
- Mean Optical Densities ([4]; Log10 Concentration −4.0): 0.302
- Mean Optical Densities ([4]; Log10 Concentration −5.0): 0.235
- Percent Growth ([4]; Log10 Concentration −5.0): −49%
- Mean Optical Densities ([4]; Log10 Concentration −6.0): 0.902
- Percent Growth ([4]; Log10 Concentration −6.0): 74%
- Mean Optical Densities ([4]; Log10 Concentration −7.0): 1.103
- Percent Growth ([4]; Log10 Concentration −7.0): 107%
- Mean Optical Densities ([4]; Log10 Concentration −8.0): 1.044
- Percent Growth ([4]; Log10 Concentration −8.0): 97%
- TGI [5]: 4.21E−06
- Mean Optical Densities ([5]; Log10 Concentration −4.0): 0.238
- Mean Optical Densities ([5]; Log10 Concentration −5.0): 0.205
- Percent Growth ([5]; Log10 Concentration −5.0): −52%
- Mean Optical Densities ([5]; Log10 Concentration −6.0): 0.935
- Percent Growth ([5]; Log10 Concentration −6.0): 86%
- Mean Optical Densities ([5]; Log10 Concentration −7.0): 1.071
- Percent Growth ([5]; Log10 Concentration −7.0): 109%
- Mean Optical Densities ([5]; Log10 Concentration −8.0): 0.921
- Percent Growth ([5]; Log10 Concentration −8.0): 84%
- Mean Optical Densities ([6]; Log10 Concentration −4.0): 0.146
- Mean Optical Densities ([6]; Log10 Concentration −5.0): 0.104
- Percent Growth ([6]; Log10 Concentration −5.0): −9%
- Mean Optical Densities ([6]; Log10 Concentration −6.0): 0.452
- Percent Growth ([6]; Log10 Concentration −6.0): 57%
- Mean Optical Densities ([6]; Log10 Concentration −7.0): 0.665
- Percent Growth ([6]; Log10 Concentration −7.0): 93%
- Mean Optical Densities ([6]; Log10 Concentration −8.0): 0.751
- Percent Growth ([6]; Log10 Concentration −8.0): 107%
- TGI [7]: 5.25E−06
- Mean Optical Densities ([7]; Log10 Concentration −4.0): 0.333
- Mean Optical Densities ([7]; Log10 Concentration −5.0): 0.351
- Mean Optical Densities ([7]; Log10 Concentration −6.0): 1.110
- Mean Optical Densities ([7]; Log10 Concentration −7.0): 1.179
- Mean Optical Densities ([7]; Log10 Concentration −8.0): 1.221
- TGI [8]: 5.37E−06
- Mean Optical Densities ([8]; Log10 Concentration −4.0): 0.256
- Mean Optical Densities ([8]; Log10 Concentration −5.0): 0.211
- Percent Growth ([8]; Log10 Concentration −5.0): −33%
- Mean Optical Densities ([8]; Log10 Concentration −6.0): 0.916
- Percent Growth ([8]; Log10 Concentration −6.0): 90%
- Mean Optical Densities ([8]; Log10 Concentration −7.0): 0.974
- Percent Growth ([8]; Log10 Concentration −7.0): 98%
- Mean Optical Densities ([8]; Log10 Concentration −8.0): 0.975
- Percent Growth ([8]; Log10 Concentration −8.0): 98%
- TGI [9]: 3.01E−06
- Mean Optical Densities ([9]; Log10 Concentration −4.0): 0.217
- Mean Optical Densities ([9]; Log10 Concentration −5.0): 0.155
- Percent Growth ([9]; Log10 Concentration −5.0): −70%
- Mean Optical Densities ([9]; Log10 Concentration −6.0): 1.075
- Percent Growth ([9]; Log10 Concentration −6.0): 64%
- Mean Optical Densities ([9]; Log10 Concentration −7.0): 1.330
- Percent Growth ([9]; Log10 Concentration −7.0): 93%
- Mean Optical Densities ([9]; Log10 Concentration −8.0): 1.310
- Percent Growth ([9]; Log10 Concentration −8.0): 90%
